The test system of series [1] is Venturia inaequalis. Briefly: Venturia test (apple)/protective. The class given is in vivo. As to conditions: 240 h, apple plants, protective, application rate 100 g/ha, evaluation 10 days after inoculation, read-out: % efficacy. On the procedure: Venturia Test (Apple)/Protective
• Solvents: 24.5 parts by weight of acetone 24.5 parts by weight of dimethylacetamide • Emulsifier: 1 part by weight of alkylaryl polyglycol ether
(§1) To produce a suitable preparation of active compound, 1 part by weight of active compound is mixed with the stated amounts of solvents and emulsifier, and the concentrate is diluted with water to the desired concentration.
To test for protective activity, young plants are sprayed with the preparation of active compound at the stated application rate. After the spray coating has dried on, the plants are inoculated with an aqueous conidia suspension of the apple scab pathogen Venturia inaequalis and then remain in an incubation cabin at about 20° C. and 100% relative atmospheric humidity for 1 day.
The plants are then placed in a greenhouse at about 21° C. and a relative atmospheric humidity of about 90%.
Evaluation is carried out 10 days after the inoculation. 0% means an efficacy which corresponds to that of the control, whereas an efficacy of 100% means that no infection is observed.

Series [2] concerns Botrytis cinerea. Briefly: Botrytis test (bean)/protective. The class given is in vivo. As to conditions: 48 h, bean plants, protective, application rate 500 g/ha, evaluation 2 days after inoculation, read-out: % efficacy. On the procedure: Botrytis Test (Bean)/Protective
• Solvents:24.5 parts by weight of acetone 24.5 parts by weight of dimethylacetamide • Emulsifier: 1 part by weight of alkylaryl polyglycol ether
as §1
To test for protective activity, young plants are sprayed with the preparation of active compound at the stated application rate. After the spray coating has dried on, 2 small pieces of agar colonized with Botrytis cinerea are placed onto each leaf. The inoculated plants are placed in a dark chamber at about 20° C. and 100% relative atmospheric humidity.
2 days after the inoculation, the size of the infected areas on the leaves is evaluated. 0% means an efficacy which corresponds to that of the control, whereas an efficacy of 100% means that no infection is observed.

Series [3] concerns Puccinia recondite. In words: Puccinia test (wheat)/protective. The class given is in vivo. As to conditions: 240 h, wheat plants, protective, application rate 500 g/ha, evaluation 10 days after inoculation, solvent/emulsifier parts 25/0.5, 25/0.6 or 50/1.0, read-out: % efficacy. Here is the method:
Puccinia Test (Wheat)/Protective • Solvent: N,N-dimethylacetamide • Emulsifier: alkylaryl polyglycol ether […] To test for protective activity, young plants are sprayed with the preparation of active compound at the stated application rate. After the spray coating has dried on, the plants are sprayed with a conidia suspension of Puccinia recondite. […] The plants are then placed in a greenhouse at a temperature of about 20° C. and a relative atmospheric humidity of 80% to promote the development of rust pustules.

Series [4] is described as follows: logP determination by HPLC on reversed-phase column (EEC Directive 79/831 Annex V.A8). The class given is physicochemical. As to conditions: for chromatographic logP: reversed-phase C18 HPLC column. On the procedure: The given logP values were determined in accordance with EEC Directive 79/831 Annex V.A8 by HPLC (High Performance Liquid Chromatography) on a reversed-phase column (C 18). Temperature: 43° C. […] Calibration was carried out using unbranched alkan-2-ones (having 3 to 16 carbon atoms) with known logP values (determination of the logP values by the retention times using linear interpolation between two successive alkanones).

The test system of series [5] is Alternaria solani. In words: Alternaria test (tomato)/protective. As to conditions: tomato plants, protective, application rate 750 g/ha, evaluation 7 days after inoculation. The class given is in vivo. Here is the method:
Alternaria Test (Tomato)/Protective
• Solvent: 49 parts by weight of N,N-dimethylformamide • Emulsifier: 1 part by weight of alkylaryl polyglycol ether
To produce a suitable preparation of active compound, 1 part by weight of active compound is mixed with the stated amounts of solvent and emulsifier, and the concentrate is diluted with water to the desired concentration.
To test for protective activity, young tomato plants are sprayed with the preparation of active compound at the stated application rate. 1 day after the treatment, the plants are inoculated with a spore suspension of Alternaria solani and are then allowed to stand at 100% relative humidity and 20° C. for 24 h. The plants are then allowed to stand at 96% relative atmospheric humidity and a temperature of 20° C.
Evaluation is carried out 7 days after the inoculation. 0% means an efficacy which corresponds to that of the control, whereas an efficacy of 100% means that no infection is observed.

The mark [6] stands for this setting: Table 1 logP / m.p., C18, 43° C., acidic range (pH 2.3), read-out: logP.
[7] abbreviates: Table 1 logP / m.p., C18, 43° C., acidic range (pH 2.3).
[8] abbreviates: pH 2.3, C18, 43° C., precursors, read-out: HPLC: logP.

Like-named read-outs stand apart in the source and are kept apart here.

As to `CC1CC(C)(C)c2cccc(NC(=O)C3=C(C(F)(F)F)OCCS3)c21` (stereo not shown) [Example 12], the pest or weed control at 100 g/ha in series [1] was 100%. Further, the pest or weed control at 500 g/ha in series [2] came to 97%.
Take `O=C(Nc1ccc(F)cc1-c1ccc(Cl)c(Cl)c1)C1=C(C(F)(F)F)OCCS1` [Example 17]: the pest or weed control at 500 g/ha in series [3] was 86%; in series [2], 96%. Further, the pest or weed control at 100 g/ha in series [1] amounted to 100%. Besides, the chromatographic logP in series [4] (setting [6]) was 3.95.
Consider `CC(C)CC(C)c1ccccc1NC(=O)C1=C(C(F)(F)F)OCCS1` (stereo not shown) [Example 18], for which the pest or weed control at 500 g/ha in series [3] and in series [2] was 100% each time. Moreover, the pest or weed control at 100 g/ha in series [1] stood at 100%. Also, in series [4] (setting [6]), the chromatographic logP stood at 3.92.
`O=C(Nc1ccccc1-c1ccc(C(F)(F)F)cc1)C1=C(C(F)(F)F)OCCS1` [Example 20]: the pest or weed control at 100 g/ha in series [1] turned out to be 88%. For the same molecule, the pest or weed control at 500 g/ha in series [2] amounted to 100%. The chromatographic logP in series [4] (setting [6]) turned out to be 3.73.
Regarding `CC(C)O/N=C/c1ccc(-c2ccccc2NC(=O)C2=C(C(F)(F)F)OCCS2)cc1` [Example 21], the “% efficacy” value in series [5] is on record as 100%. Besides, in series [1], the pest or weed control at 100 g/ha is 100%. Also, in series [2], the pest or weed control at 500 g/ha turned out to be 100%. Besides, the chromatographic logP in series [4] (setting [6]) came out at 4.22.
For the molecule `CCCO/N=C/c1ccc(-c2ccccc2NC(=O)C2=C(C(F)(F)F)OCCS2)cc1` [Example 22], in series [1], the pest or weed control at 100 g/ha is 100%. The pest or weed control at 500 g/ha in series [2] is 100%. Further, the chromatographic logP in series [4] (setting [6]) is 4.25.
For `O=C(Nc1ccccc1-c1ccc(Cl)c(F)c1)C1=C(C(F)(F)F)OCCS1` [Example 23], the pest or weed control at 500 g/ha in series [3] amounted to 89%. Further, the chromatographic logP in series [4] (setting [6]) turned out to be 3.62.
The matching figures for `O=C(Nc1ccccc1-c1ccc(F)c(Cl)c1)C1=C(C(F)(F)F)OCCS1` [Example 24]: 100% and 3.6.
On to `Cc1cc(Cl)ccc1-c1ccccc1NC(=O)C1=C(C(F)(F)F)OCCS1` [Example 26], for which the “% efficacy” value in series [5] amounted to 100%. Moreover, in series [4] (setting [6]), the chromatographic logP worked out at 4.
For the molecule `O=C(Nc1ccccc1-c1ccc(Br)cc1)C1=C(C(F)(F)F)OCCS1` [Example 27], in series [3], the pest or weed control at 500 g/ha stood at 88%. In series [4] (setting [6]), the chromatographic logP was 3.7.
Consider `O=C(Nc1ccccc1-c1ccc(C(F)(F)F)c(F)c1)C1=C(C(F)(F)F)OCCS1` [Example 29], for which the pest or weed control at 500 g/ha in series [3] was 94%. Further, the chromatographic logP in series [4] (setting [6]) was found to be 3.75.
As to `Cc1cc(-c2ccccc2NC(=O)C2=C(C(F)(F)F)OCCS2)ccc1F` [Example 35], the pest or weed control at 500 g/ha in series [3] was found to be 88%. Besides, the chromatographic logP in series [4] (setting [6]) was 3.65.
For `CC(CC1CCCC1)c1ccccc1NC(=O)C1=C(C(F)(F)F)OCCS1` (stereo not shown) [Example 37], the pest or weed control at 500 g/ha in series [3] stood at 93%. In addition, the chromatographic logP in series [4] (setting [6]) is 4.38.
For `Cc1ccc(-c2ccccc2NC(=O)C2=C(C(F)(F)F)OCCS2)cc1Cl` [Example 38], in series [3], the pest or weed control at 500 g/ha turned out to be 88%. Also, the chromatographic logP in series [4] (setting [6]) is 3.89.
In the case of `CC/C(=N\OC)c1ccc(-c2ccccc2NC(=O)C2=C(C(F)(F)F)OCCS2)cc1` [Example 56], in series [3], the pest or weed control at 500 g/ha was found to be 88%. Besides, the chromatographic logP in series [4] (setting [6]) is 4.08.
Consider `O=C(Nc1ccccc1-c1ccc(Br)c(F)c1)C1=C(C(F)(F)F)OCCS1` [Example 57], for which the pest or weed control at 500 g/ha in series [3] came to 88%. Besides, in series [4] (setting [6]), the chromatographic logP is 3.69.
`O=C(Nc1ccccc1-c1ccc(Cl)cc1Cl)C1=C(C(F)(F)F)OCCS1` [Example 79]: in series [3], the pest or weed control at 500 g/ha was found to be 86%. Further, in series [4] (setting [6]), the chromatographic logP is 3.82.
On to `CC(C)CC(C)c1ccccc1NC(=O)C1=C(C(F)F)OCCS1` (stereo not shown) [Example 82], for which the pest or weed control at 500 g/ha in series [3] was 100%. The chromatographic logP in series [4] (setting [6]) is 4.03.
Broadly, the logP is the decadic logarithm of the partition coefficient of the neutral form, usually between octanol and water. As for `CCCON=Cc1ccc(-c2ccccc2NC(=O)C2=C(C(F)F)OCCS2)cc1F` [Example 85], the lipophilicity (logP) in series [4] (setting [7]) was found to be 4.52.
Take `CCCC(CC(C)C)c1ccccc1NC(=O)C1=C(C(F)(F)F)OCCS1` (stereo not shown) [Example 87]: the logP in series [4] (setting [7]) is on record as 4.65.
In the case of `CCC(CC(C)C)c1ccccc1NC(=O)C1=C(C(F)(F)F)OCCS1` (stereo not shown) [Example 88], the logP in series [4] (setting [7]) turned out to be 4.30.
`CC(=CC(C)C)c1ccccc1NC(=O)C1=C(C(F)(F)F)OCCS1` [Example 89] showed a logP in series [4] (setting [7]) of 4.32.
For the molecule `CC(C)CC(C)c1ccccc1NC(=O)C1=C(C(F)(F)F)OCCS1(=O)=O` (stereo not shown) [Example 90], the logP in series [4] (setting [7]) is listed as 3.53.
In the case of `O=C(Nc1ccccc1-c1ccc(Br)cc1)C1=C(C(F)(F)F)OCCS1(=O)=O` [Example 91], in series [4] (setting [7]), the lipophilicity (logP) is 3.35.
For `Cc1cc(Cl)ccc1-c1ccccc1NC(=O)C1=C(C(F)(F)F)OCCS1(=O)=O` [Example 92], the logP in series [4] (setting [7]) is reported as 3.66.
The same measure, in the same setting: next, `O=C(Nc1ccccc1-c1ccc(Cl)c(Cl)c1)C1=C(C(F)(F)F)OCCS1(=O)=O` [Example 93]: 3.57; `CCC(C)C(C)c1ccccc1NC(=O)C1=C(C(F)(F)F)OCCS1` (stereo not shown) [Example 94]: 3.88; `O=C(Nc1ccccc1-c1ccc(Cl)c(F)c1)C1=C(C(F)(F)F)OCCS1(=O)=O` [Example 95]: 3.28.
`CC(CC1CC1)c1ccccc1NC(=O)C1=C(C(F)(F)F)OCCS1` (stereo not shown) [Example 96] yielded a log partition coefficient (logP) in series [4] (setting [7]) of 3.72.
Molecule `CC(C)(C)C#Cc1ccccc1NC(=O)C1=C(C(F)(F)F)OCCS1` [Example 97] gave a logP in series [4] (setting [7]) of 4.42.
Molecule `Cc1cc(-c2ccccc2NC(=O)C2=C(C(F)(F)F)OCCS2)ccc1Br` [Example 98] displayed a logP in series [4] (setting [7]) of 4.06.
The molecule `CC(=O)N(C(=O)C1=C(C(F)(F)F)OCCS1)c1ccccc1C(C)CC(C)C` (stereo not shown) [Example 99] had a logP in series [4] (setting [7]) of 4.56.
For the molecule `CON=C(c1ccc(-c2ccccc2NC(=O)C2=C(C(F)(F)F)OCCS2)cc1)C(F)(F)F` [Example 100], in series [4] (setting [7]), the log partition coefficient (logP) is on record as 2.53.
For `CC1(c2ccccc2NC(=O)C2=C(C(F)(F)F)OCCS2)CC1(Cl)Cl` (stereo not shown) [Example 101], the logP in series [4] (setting [7]) stood at 3.66.
For the molecule `CC(C)CCc1ccccc1NC(=O)C1=C(C(F)(F)F)OCCS1` [Example 102], the logP in series [4] (setting [7]) is 3.72.
In turn, `CC(C)(C)CCc1ccccc1NC(=O)C1=C(C(F)(F)F)OCCS1` [Example 103] came in with a logP in series [4] (setting [7]) of 3.98.
`CC1COC(C(F)(F)F)=C(C(=O)O)S1` (stereo not shown) [Example (II-2)]: in series [4] (setting [8]), the chromatographic logP was 1.69.
Same read-out and setting: next, `CC1CSC(C(=O)O)=C(C(F)(F)F)O1` (stereo not shown) [Example (II-3)]: 1.72; `CC(C)=CC(C)c1ccccc1N` (stereo not shown) [Example (III-2)]: 1.19.
In the case of `CCC(Cl)CC(C)c1ccccc1N` (stereo not shown) [Example (III-3), 2-(3-Chloro-1-methylpentyl)phenylamine], in series [4] (setting [8]), the chromatographic logP turned out to be 2.3.
Take `CC(CC1CC1(Cl)Cl)c1ccccc1NC(=O)C(C)(C)C` (stereo not shown) [III-4a, N-{2-[2-(2,2-dichlorocyclopropyl)-1-methylethyl]-phenyl}-2,2-dimethylpropionamide]: in series [4] (pH 2.3, C18, 43° C., read-out: logP (pH 2.3)), the chromatographic logP worked out at 3.77.

(Values after US7847108B2, “Oxathiin carboxamides” (Bayer CropScience AG, priority 2003, dated 2010).)
